Structures are written as SMILES.

The nature of this data set: gradient 5% acetonitrile 3 min, to 50% in 2 min, to 85% in 15 min, held 3 min, 100 µL/min. As to conditions: column: Zorbax Extend-C18 2.1 x 50 mm; eluents: water / acetonitrile, 0.1% formic acid. The method, boiled down: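 Data were gathered over 3 months by HPLC coupled to a quadrupole time-of-flight mass spectrometer, operated in positive and negative ionization mode. Mixtures of ~100 pure standards ran on a Zorbax Extend-C18 column (2.1 × 50 mm, 1.8 μm) at 100 μL/min, with water and acetonitrile each containing 0.1% formic acid and dead and dwell volumes of 40 μL and 900 μL. Retention time was read from adduct peaks picked by computer and checked manually.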
In turn, `CC(=O)N1CCN(S(=O)(=O)c2cc3c4c(c2)CCC(=O)N4CCC3)CC1` returned an RP-LC retention time of 647 s.

For `Cc1ccc(S(=O)(=O)N2CCN(CCc3cn(C)c4ncccc34)CC2)cc1Cl`, the RP-LC retention time is 686 s.

In turn, `Cn1cnc(S(=O)(=O)N2CCC(c3noc(COCc4ccccc4)n3)C2)c1` (centres undefined) came in with an RP-LC retention time of 761 s.

Turning to `COCc1cc2nn(CC(=O)Nc3ccccc3)c(=O)n2c(-c2ccccc2)n1`, the RP-LC retention time came out at 800 s.

`CCN1CCN(c2ccc(-c3nc(-c4ccc(OC)cc4)no3)cn2)CC1`: the RP-LC retention time was 696 s.

As for `COC(=O)c1cc(OC)c(OC)cc1NC(=O)c1ccc(CSc2ccccc2)o1`, the RP-LC retention time was found to be 1070 s.

The compound `CCOc1nccnc1N1CCC(N(C)C(=O)c2ccsc2)C1` (centres undefined) displayed an RP-LC retention time of 724 s.

In turn, `CCc1noc(NC(C)=O)c1-c1ccc(C)c(S(=O)(=O)Nc2ccc(Cl)cc2C)c1` came in with an RP-LC retention time of 888 s.

In the case of `COC1C(=O)N(c2cccc(F)c2)C12CCN(S(=O)(=O)c1cccs1)CC2` (centres undefined), the RP-LC retention time is 937 s.

As to `Clc1ccc(-c2ccc(CNc3ncn[nH]3)o2)c(Cl)c1`, the RP-LC retention time turned out to be 734 s.

Consider `COC(=O)c1c(NCC(C)O)c2cccc(Cl)c2[nH]c1=O` (centres undefined), for which the RP-LC retention time was 610 s.

Take `COc1ccc(Cl)cc1NS(=O)(=O)c1cc2c(s1)CCN(C(=O)C1CCC1)C2`: the RP-LC retention time was found to be 973 s.

`CCn1ccc(-c2nc(-c3ccc4oc(-c5ccccc5)nc4c3)no2)n1` showed an RP-LC retention time of 1130 s.

`COc1ccc(C)c2sc(N(CCN(C)C)C(=O)c3cnn(-c4ccccc4)c3C)nc12` displayed an RP-LC retention time of 632 s.

`Cc1noc(C)c1-c1ccc(S(=O)(=O)NCc2ccc(Cl)cc2)cc1`: the RP-LC retention time came out at 969 s.

`COc1ccc(CNC(=O)C2=C3CCCN3c3ccc(F)cc3S2(=O)=O)cc1` displayed an RP-LC retention time of 876 s.

`O=C([C@@H]1C[C@H](Oc2ccccc2)CN1C(=O)CCC1CCCC1)N1CCCC1` yielded an RP-LC retention time of 922 s.

`Cc1nc(-c2cc(S(=O)(=O)Nc3cccc(Br)c3)c(C)s2)cs1` gave an RP-LC retention time of 1050 s.

`O=S(=O)(Cc1ccc(Cl)cc1)Nc1cccn2ncnc12` yielded an RP-LC retention time of 800 s.

`CCOc1ccc(N2C=C(C(=O)OC)S(=O)(=O)c3ccc(Br)cc32)cc1` yielded an RP-LC retention time of 1040 s.

Take `COC(=O)c1cccc(NS(=O)(=O)c2cc3n(c2)CCN(C)C3=O)c1`: the RP-LC retention time came out at 683 s.

`CCOc1cccc(C2CC(c3cccc(OC)c3)=NC3(CCN(C(C)C)CC3)N2)c1O` (centres undefined): the RP-LC retention time turned out to be 618 s.

In turn, `CC1(C(=O)NCc2ccc(F)cc2)Cn2cnc(C(=O)NC3CCCCCC3)c2C(=O)N1C1CC1` (centres undefined) displayed an RP-LC retention time of 823 s.

The compound `COCCn1ncc(N2CCC(C(=O)Nc3cc(OC)cc(OC)c3)C2)cc1=O` (centres undefined) showed an RP-LC retention time of 684 s.

As for `COC(=O)c1ccccc1NC(=O)NCCc1c(C)nn(C)c1C`, the RP-LC retention time turned out to be 629 s.

With `CC(C)[C@H](CO)Nc1nc(Sc2cccc(N)c2)c2ncn(C(C)C)c2n1`, the RP-LC retention time came to 706 s.

Compound `Clc1ccccc1-c1noc(Cc2nc(-c3ccc4c(c3)OCO4)cs2)n1` gave an RP-LC retention time of 1140 s.

As for `CCc1nc2c(NC(=O)NCc3ccc(F)cc3)cccn2n1`, the RP-LC retention time came out at 788 s.

Turning to `Cc1cc(Cl)ccc1NS(=O)(=O)c1ccc(-c2c(C)noc2C)cc1`, the RP-LC retention time was found to be 1030 s.

As for `Cc1nc(-c2cn(C)c3ncccc23)sc1C(=O)NCc1ccccc1F`, the RP-LC retention time amounted to 874 s.

Turning to `CCS(=O)(=O)c1nc2ccc(NS(=O)(=O)c3ccc(OC)cc3)cc2s1`, the RP-LC retention time stood at 833 s.

Consider `COc1ccccc1-n1ccn2cc(-c3ccc4c(c3)OCO4)nc2c1=O`, for which the RP-LC retention time worked out at 776 s.

Take `Cc1cc2c(=O)n(CC(=O)Nc3cc(Cl)ccc3C)ccc2s1`: the RP-LC retention time stood at 847 s.

`CCOC(=O)c1c(S(=O)(=O)N2CCC(C(=O)Nc3cccc(OC)c3)CC2)c(C)n(C)c1C` registered an RP-LC retention time of 834 s.

`O=C(c1cccs1)N1CCCc2cc(NS(=O)(=O)c3cc(F)ccc3F)ccc21` had an RP-LC retention time of 832 s.

As to `Cc1ccc(C(=O)NC2CCN(c3ccccc3)C2=O)cc1F` (centres undefined), the RP-LC retention time is 823 s.

Compound `Cc1c2ccncc2cc2c1[nH]c1ccccc12` came in with an RP-LC retention time of 637 s.

As to `CCCn1c(=O)sc2cc(S(=O)(=O)N3CCC(C(=O)NCc4ccc(C)cc4)CC3)ccc21`, the RP-LC retention time turned out to be 969 s.

`CCOC(=O)c1c(C)[nH]c(C(=O)N2CCC(CC(=O)NCc3ccccc3Cl)CC2)c1C` yielded an RP-LC retention time of 813 s.

In turn, `COc1ccc(NC(=O)CSc2ccc(N3CCCC(C(=O)NC4CC4)C3)nn2)cc1` (centres undefined) yielded an RP-LC retention time of 617 s.

Turning to `Cc1ccc(CNC(=O)CCC2CCCN(S(=O)(=O)c3ccccc3C)C2)cc1` (centres undefined), the RP-LC retention time worked out at 1010 s.

Turning to `O=C(NCC1CCCO1)C1CCCN(c2nccnc2Sc2ccccc2)C1` (centres undefined), the RP-LC retention time amounted to 860 s.

Compound `CCCCS(=O)(=O)c1cc2c(cc1NC(=O)Cc1ccc(F)cc1)n(C)c(=O)n2C` showed an RP-LC retention time of 847 s.

`COC(=O)[C@H](Cc1ccc([N+](=O)[O-])cc1)NC(=O)c1cccc2ccccc12`: the RP-LC retention time is 909 s.

For `CC1=C(c2cccc(Br)c2)S(=O)(=O)N=C1N1CCN(c2ccccn2)CC1`, the RP-LC retention time was 686 s.

With `Cc1ccccc1Nc1c(-c2c(F)cccc2Cl)nc2cccc(C)n12`, the RP-LC retention time turned out to be 762 s.

Compound `O=C(Nc1cccc(-c2noc(C3CC3)n2)c1)c1n[nH]c2c1CCCC2` showed an RP-LC retention time of 941 s.

Compound `O=S(=O)(c1ccc(F)c(F)c1)N1CCC(CN2CCCCCC2)CC1` registered an RP-LC retention time of 666 s.

Consider `O=C(NC1CCCCCCC1)C1CCN(C(=O)c2cc(-c3cccnc3)n[nH]2)CC1`, for which the RP-LC retention time worked out at 651 s.

In the case of `CCN1C(=O)C(CC(=O)NC2CCCCCC2)Sc2ncccc21` (centres undefined), the RP-LC retention time was 804 s.

Take `CCCNC(=O)c1cc(-c2ccc(F)cc2)cn1C`: the RP-LC retention time was found to be 930 s.

In turn, `O=c1n(CCOc2ccc(F)cc2)nc2c(S(=O)(=O)N3CCCC3)cccn12` showed an RP-LC retention time of 824 s.

Take `CCOc1cc2c(cc1OCC)C1C(C(=O)NCCN3CCOCC3)c3ccccc3C(=O)N1CC2` (centres undefined): the RP-LC retention time came out at 615 s.

`Cc1cc(C)c2c(-n3cccc3)nn(CC(=O)Nc3ccc(C(C)C)cc3)c2n1` came in with an RP-LC retention time of 1160 s.

Compound `Cc1cc(NC(=O)CN2C(=O)c3ccccc3C2=O)n(-c2ccccc2)n1` returned an RP-LC retention time of 709 s.

The compound `CCn1nccc1C(=O)N1CCC(c2nc3ccncc3n2CC(C)C)C1` (centres undefined) registered an RP-LC retention time of 555 s.

Take `O=C(NCCS(=O)(=O)N1CCN(c2ccccc2)CC1)c1ccc(Br)o1`: the RP-LC retention time stood at 807 s.

Take `Cc1ccc(NC(=O)Cn2ccc3sccc3c2=O)cc1F`: the RP-LC retention time was found to be 785 s.

`CC(NC(=O)CCC(=O)N1CCc2c(c(C(=O)N3CCOCC3)nn2C)C1)c1ccccc1` (centres undefined) yielded an RP-LC retention time of 632 s.

`Cc1ncc2c(n1)C[C@@H]1CC[C@H]2N1S(=O)(=O)c1ccc(F)cc1` had an RP-LC retention time of 720 s.

For the compound `O=C(COc1ccc(Cl)cc1Cl)NC1CC(=O)N(C2CC2)C1` (centres undefined), the RP-LC retention time amounted to 701 s.

Take `O=C(CSc1ncccn1)Nc1nc(-c2ccccc2)c(-c2ccccc2)o1`: the RP-LC retention time was 905 s.

Compound `Cc1cc(C)c(-c2noc(C)n2)c(NC(=O)c2cc(F)cc(F)c2)n1` had an RP-LC retention time of 787 s.

In turn, `CC(C)(NC(=O)c1cnccn1)c1nc2c(c(C(N)=O)n1)OCO2` gave an RP-LC retention time of 598 s.

Regarding `Cc1ccc(-c2noc(Cc3nnc(-c4ccc(C)c(C)c4)o3)n2)cc1C`, the RP-LC retention time stood at 1230 s.

`CC(C)(C)c1ccc(-c2nc(NCCCN3CCOCC3)c3ccccc3n2)cc1` displayed an RP-LC retention time of 595 s.

As to `O=C(Nc1cccc(F)c1)c1nnc(CCCC(=O)N2CCN(c3ccccn3)CC2)s1`, the RP-LC retention time is 646 s.

As for `CS(=O)(=O)N1CCCc2cc(C(=O)NCc3ccco3)ccc21`, the RP-LC retention time is 742 s.

Take `CCOC(=O)CC(NC(=O)N1CCC2(CC1)NC(=O)c1ccccc1O2)c1ccccc1` (centres undefined): the RP-LC retention time turned out to be 782 s.

Compound `c1ccc(-c2nc(-c3cnccn3)no2)c(OC2CNC2)c1` displayed an RP-LC retention time of 583 s.

`CN(C)c1ccc(-c2noc(C3CC(=O)N(c4ccc(F)cc4)C3)n2)cc1` (centres undefined) had an RP-LC retention time of 994 s.

`Fc1ccc(-n2cc(-c3noc(-c4ccccc4F)n3)nn2)cc1` returned an RP-LC retention time of 1040 s.

Compound `CCN1CCN(CCNC(=O)C2CCN(Cc3cn(C)c4ccc(Cl)cc34)CC2)CC1` gave an RP-LC retention time of 561 s.

`COc1cc(NC(=O)CN2C(=O)CN=C(c3ccccc3Cl)c3cc(Cl)ccc32)cc(OC)c1` returned an RP-LC retention time of 990 s.

As to `CCc1ccc(NC(=O)c2c(O)c3cccnc3n(-c3ccc(F)cc3)c2=O)cc1`, the RP-LC retention time is 1230 s.

With `Cn1ncc2c3ccccc3n(CC(=O)N3CCN(Cc4ccc5c(c4)OCO5)CC3)c2c1=O`, the RP-LC retention time was 622 s.

Consider `COCCCn1c(C)cc(C(=O)NCC2Cn3cccc3C(=O)N2C)c1C` (centres undefined), for which the RP-LC retention time is 666 s.

Turning to `COc1ccc(-c2noc(Cn3nc(-c4ccccc4)ccc3=O)n2)c(OC)c1`, the RP-LC retention time turned out to be 880 s.

Regarding `Cc1[nH]c2ccccc2c1C(=O)C(=O)NC1CC(=O)N(c2ccccc2)C1` (centres undefined), the RP-LC retention time is 711 s.

These data come from the METLIN SMRT retention time set (Domingo-Almenara et al. 2019).
